Assay results: article PMC12985355 (Journal of the American Chemical Society, 2025)
Read-outs that look alike come from different tables or passages of the source.

Tests used:
CntL = CntL (Staphylococcus aureus, UniProt A0A0H3JXA8); test: thermal shift assay; assay type: binding
[1] = target: T1, NAT (SAM:nocardicin 3-ACP transferase) (Nocardia uniformis, UniProt Q9RAH6); test: 3-ACP transfer, LC-MS; assay type: biochemical; conditions: SAM as co-substrate; very low yield
T1 sequence (Q9RAH6 1-301): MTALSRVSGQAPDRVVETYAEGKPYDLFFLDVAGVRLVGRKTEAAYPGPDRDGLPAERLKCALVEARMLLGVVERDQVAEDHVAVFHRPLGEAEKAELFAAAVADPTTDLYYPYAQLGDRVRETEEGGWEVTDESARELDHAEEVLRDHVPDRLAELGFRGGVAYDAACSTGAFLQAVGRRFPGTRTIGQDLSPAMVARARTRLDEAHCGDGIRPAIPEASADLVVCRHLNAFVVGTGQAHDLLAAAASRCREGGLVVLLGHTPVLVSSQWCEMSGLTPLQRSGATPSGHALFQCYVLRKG

[2] = target: T1, NAT (SAM:nocardicin 3-ACP transferase); test: thermal shift assay; assay type: binding; conditions: binds to a similar extent as SAM; no turnover with nocardicin E
[3] = target: T1, NAT (SAM:nocardicin 3-ACP transferase); test: thermal shift assay; assay type: binding; conditions: further addition to enzyme with nocardicin E (2)

Chain of CntL (A0A0H3JXA8 whole entry): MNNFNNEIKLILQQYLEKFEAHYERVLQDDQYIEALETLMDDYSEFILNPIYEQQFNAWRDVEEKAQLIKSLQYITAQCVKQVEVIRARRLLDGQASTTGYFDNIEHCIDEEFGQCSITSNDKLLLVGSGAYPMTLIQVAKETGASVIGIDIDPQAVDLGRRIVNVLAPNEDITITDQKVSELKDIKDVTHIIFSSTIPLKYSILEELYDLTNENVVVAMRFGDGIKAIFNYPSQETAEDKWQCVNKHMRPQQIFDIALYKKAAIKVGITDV

N[C@H](Cc1c[nH]cn1)C(=O)O [D-histidine]
melting point (CntL; with SAM present, no shift with da-SAM): the melting point increased when CntL was combined with SAM and D-his

CC1(C)S[C@@H]2[C@H](NC(=O)[C@H](N)c3ccc(O)cc3)C(=O)N2[C@H]1C(=O)O [amoxicillin]
3-ACP transfer, LC-MS [1]: NAT accepted both of them, to produce the 3-ACP-β-lactam products

CC1=C(C(=O)O)N2C(=O)[C@@H](NC(=O)[C@H](N)c3ccc(O)cc3)[C@H]2SC1 [cefadroxil]
3-ACP transfer, LC-MS [1]: NAT accepted both of them, to produce the 3-ACP-β-lactam products

C[S+](CCCC(=O)[O-])C[C@H]1O[C@@H](n2cnc3c(N)ncnc32)[C@H](O)[C@@H]1O (stereo partly drawn) [deamino-SAM]
melting temperature [2]: deamino-SAM can bind to the enzyme to a similar extent as SAM

C[S+](CC[C@H](N)C(=O)O)C[C@H]1O[C@@H](n2cnc3c(N)ncnc32)[C@H](O)[C@@H]1O (stereo partly drawn) [SAM]
melting point (CntL): da-SAM can bind to the enzyme to the same extent as SAM
increase in melting temperature [3]: 7 °C
